These results are taken from patent US20260216169A1, “NAPHTHYLAMIDE COMPOUND, AND PREPARATION METHOD THEREFOR AND USE THEREOF” (SHENZHEN CHIPSCREEN BIOSCIENCES CO., LTD., priority 2022, published 2026).

The target of one series is T1, VEGFR2 (Homo sapiens, UniProt P35968).
T1 construct: purchased Carna 08-191
Description: HTRF KinEASE test against VEGFR2, reported as relative selectivity IC50-VEGFR2/IC50-Aurora B. Format: biochemical. Conditions: ratio of IC50 against VEGFR2 to IC50 against Aurora B. The procedure: (§1) Preparation of working solutions of compounds in DMSO with gradient concentrations: 0.2 mM solutions of the compounds in DMSO were prepared and serially diluted with DMSO to form working solutions with 10 gradient concentrations (corresponding to final compound concentrations of 1000 nM, 300 nM, 100 nM, 30 nM, 10 nM, 3 nM, 1 nM, 0.3 nM, 0.1 nM, and 0.03 nM in the reaction system).
(§2) Tests of inhibitory activity against Aurora B kinase and VEGFR2: The half maximal inhibitory concentrations (IC50) of the compounds against Aurora B kinase and VEGFR2 were determined using HTRF KinEASE-TK kit (Cisbio, Cat #62TKOPEC) and HTRF KinEASE-STK kit (Cisbio, Cat #61ST2BLE). A 2× kinase & Metal solution (Aurora B/Cat #05-102 and VEGFR2/Cat #08-191, both purchased from Carna) and a 2× Substrate & ATP solution (for Aurora B and VEGFR2, substrates S2 and TK were used, respectively) were prepared according to the kit instructions. The working solutions of the test compounds with gradient concentrations were added to a 384-well plate at 25 nL/well, and 2.5 μL of the 2× kinase & Metal solution was added to each well. The plate was sealed with a plate-sealing film, well shaken, centrifuged, and then incubated at 25° C. for 10 min. Then, the 2× Substrate & ATP solution was added at 2.5 μL/well, and the plate was incubated again at 25° C. for 30 min. Finally, a 2× XL665 & Antibody kinase detection reaction solution was added at 5 μL/well. After the plate was incubated at 25° C. for 60 min, the fluorescence signals at wavelengths of 665 nm and 620 nm in each well were measured by a microplate reader.
(§3) The 665 nm/620 nm fluorescence signal ratio (X) of each well was calculated. With the compound-free well as a negative control (Y) and the enzyme-free well as a positive control (Z), the inhibition rate of the compound in each test well against the corresponding kinase was calculated using the formula: inhibition (%)=100%−(X−Z)/(Y−Z)×100%, and the half maximal inhibitory concentration (IC50) of each compound against the corresponding kinase was calculated by GraphPad 7.0 software.

The subject of another series is Molt-4 cells. Description: Effects on tumor cell cycle, PI staining and flow cytometry. Format: cell-based, human. The following applies: 48 h. From the text: When the activity of Aurora B kinase is inhibited in tumor cells, the arrangement and separation of chromosomes are blocked, leading to cytokinesis failure and the formation of tetraploid or polyploid cells. Moreover, severe genomic instability and mitotic catastrophe result in apoptosis. The intracellular DNA content can be mapped with propidium iodide (PI), a fluorescent dye that specifically binds to nucleic acid, so that cell states can be distinguished into sub-G0/G1 (apoptosis), G0/G1, S, G2/M (tetraploid), and polyploid states.
Experimental process: Molt-4 cells (human acute lymphoblastic leukemia cells, CRL-1582) were purchased from the American Type Culture Collection (ATCC). Molt-4 cells in the logarithmic growth phase were collected from suspension culture and counted. The cells were seeded into a 6-well plate at 10^6 cells/well and cultured overnight under normal conditions. The test compounds were prepared as 1 mM and 3 mM solutions in DMSO, and the solutions in DMSO were diluted 50-fold with culture medium. Finally, the above solutions were added to the culture system in a volume ratio of 1:19, achieving a final compound concentration of 1 μM or 3 μM in each well. After 48 h of incubation, the cells were collected by centrifugation. Each cell sample was resuspended in 300 μL of PBS, and the suspension was added dropwise to 700 μL of pre-cooled absolute ethanol. Then the mixture was gently inverted several times for thorough mixing to complete cell collection and fixation. The samples were left to stand at 4° C. for more than 12 h and then analyzed by flow cytometry.
A working dye solution was prepared by homogeneously mixing PBS, a 10 mg/mL PI stock solution, and a 10 mg/mL RNase A solution in a ratio of 1000:5:2. The fixed cell samples were centrifuged at 4° C. and 1000 rpm for 10 min. The supernatants were completely removed using a pipette, and the cells were washed twice with PBS and resuspended in the above working dye solution at […]. After incubation in a dark place at 37° C. for 30 min, the cells were filtered using a 200-mesh stainless steel strainer, and the filtrate was loaded onto a flow cytometer for cell cycle analysis (10,000 cells counted per sample).
Histograms showing DNA contents were obtained from the flow cytometry analysis, and the cell cycle distribution in each sample was analyzed using the flow cytometry data analysis software FlowJo. The mean (X) and standard deviation (SD) were calculated, and data were represented as X±SD. The apoptosis and the proportions of tetraploid and polyploid cells after Molt-4 cells were treated with different doses of the test compounds are shown in Table 3 below.
A general note: In flow cytometry, cells or beads pass a laser one at a time.

The nature of series [1]: Brain permeation assay in mice. Conditions: B/C, mouse, oral; female mice, 5 mg/kg intragastric, 4 h after administration; read-out: Brain permeation (ratio of compound concentration in brain tissue to concentration in plasma). Format: in vivo. The procedure:
The objective of this example was to test whether the compounds of the present disclosure are able to cross the blood-brain barrier (BBB). The compounds of the present disclosure were dissolved in a vehicle containing 5% dimethyl sulfoxide, 60% 1,3-propanediol, and 35% purified water, and intragastrically administered to B/C female mice aged 6 weeks (purchased from Guangdong Medical Laboratory Animal Center) at 5 mg/kg. The animals were sacrificed 4 h after the administration, and blood and brain tissue samples were collected. The blood samples were anticoagulated with K2-EDTA and centrifuged at 5000 rpm for 5 min to separate plasma. The brain tissue samples were accurately weighed and homogenized with a certain amount of phosphate-buffered saline (PBS) solution, and the biological samples were stored at −80° C. before analysis. After sample extraction, the compound concentration was determined using a liquid chromatography-tandem mass spectrometry (LC-MS/MS) system. Brain permeation was defined as the ratio of the compound concentration in brain tissue to the concentration in plasma.

The next series deals with PANC02 cells. The series can be described thus: Anti-tumor efficacy in PANC02 mouse pancreatic cancer graft tumor model. Format: in vivo, C57BL/6 mice. Conditions: for Mean tumor volumes (mm^3 ± SEM), Day 9 / Tumor volume inhibition rate (% TGI), Day 9: 10 mg/kg/day intragastric once daily; for Mean tumor volumes (mm^3 ± SEM), Day 0: 10 mg/kg/day intragastric, grouping and administration Day 0. From the text:
A mouse PANC02 pancreatic cancer graft tumor model was constructed: the experimental animals were C57BL/6 mice (female, 6 weeks old), the tumor cells were PANC02 cells (mouse pancreatic cancer cells), and the cell culture medium was a DMEM culture medium containing 1% double antibiotic and 10% fetal bovine serum. PANC02 cells in the logarithmic growth phase and in good condition were collected and inoculated subcutaneously into the left flank of C57BL/6 mice at a concentration of 0.9×10^6 cells/0.2 mL. The long diameters (a, mm) and short diameters (b, mm) of the tumors were measured using a vernier caliper, and tumor volume (V, mm^3) was calculated using the formula: V=½a×b^2. Tumor volume was measured 2-3 times weekly using the vernier caliper. When the mean tumor volumes of the mice reached 190 mm^3 or above, the mice were divided into 4 groups of 8 and dosed, and the day of grouping was represented by day 0. The groups were as follows: a solvent control group (0.2% aqueous solution of CMC-Na), a compound I-9 group (10 mg/kg/day), a control molecule 01 (chiauranib) group (10 mg/kg/day), and a control molecule 02 group (10 mg/kg/day). All four groups received intragastric administration once daily for consecutive days, and the experiment was terminated on the day of the last dose.
The tumor volume results were represented as mean and standard error (Mean±S.E.M). Intergroup comparisons were performed using the Mann Whitney test. If p<0.05, the difference is considered to be statistically significant. The tumor volume inhibition rate (TGI) was calculated using the formula: TGI (%)=[1−(Ti−T0)/(Vi−V0)]×100% (Ti: mean tumor volume of the treatment group on day i of administration; TO: mean tumor volume of the treatment group on day 0 of administration; Vi: mean tumor volume of the solvent control group on day i of administration; V0: mean tumor volume of the solvent control group on day 0 of administration).

For series [2], the target named is T2, Aurora B kinase (Homo sapiens, UniProt Q96GD4). Description: HTRF KinEASE test of inhibitory activity against Aurora B kinase. Format: biochemical. Also noted: purchased Carna 05-102. Conditions: Carna kinase, substrate S2. The procedure:
as §1, §2, §3
Target sequence in this assay (Q96GD4 whole entry): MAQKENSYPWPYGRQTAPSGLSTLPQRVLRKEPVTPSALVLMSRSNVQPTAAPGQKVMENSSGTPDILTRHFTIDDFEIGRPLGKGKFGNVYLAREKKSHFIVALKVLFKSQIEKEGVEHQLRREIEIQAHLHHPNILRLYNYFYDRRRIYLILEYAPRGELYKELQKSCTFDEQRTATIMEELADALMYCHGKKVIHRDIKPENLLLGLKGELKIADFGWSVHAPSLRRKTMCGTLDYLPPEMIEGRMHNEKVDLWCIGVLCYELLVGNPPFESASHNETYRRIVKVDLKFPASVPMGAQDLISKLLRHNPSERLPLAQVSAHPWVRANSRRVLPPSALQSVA
Target sequence in this assay (Q9NQS7 803-916 partner limits assumed): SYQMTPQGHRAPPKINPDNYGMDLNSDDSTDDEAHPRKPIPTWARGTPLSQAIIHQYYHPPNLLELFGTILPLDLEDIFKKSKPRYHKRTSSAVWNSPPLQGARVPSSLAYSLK
(In TR-FRET formats the signal depends on donor and acceptor labels being close together.)

The target in series [3] is T2, Aurora B kinase. Description: In vitro cytological assays of Aurora B kinase inhibition. Format: cell-based. Also noted: dose or concentration left out as unconfirmed.
Target sequence in this assay (Q96GD4 whole entry): as the sequence (Q96GD4 whole entry) above
The conditions of series [4]: human, 65-mg treatment group, phase I; cited from earlier work.

T1 sequence (P35968 790-1356 limits assumed): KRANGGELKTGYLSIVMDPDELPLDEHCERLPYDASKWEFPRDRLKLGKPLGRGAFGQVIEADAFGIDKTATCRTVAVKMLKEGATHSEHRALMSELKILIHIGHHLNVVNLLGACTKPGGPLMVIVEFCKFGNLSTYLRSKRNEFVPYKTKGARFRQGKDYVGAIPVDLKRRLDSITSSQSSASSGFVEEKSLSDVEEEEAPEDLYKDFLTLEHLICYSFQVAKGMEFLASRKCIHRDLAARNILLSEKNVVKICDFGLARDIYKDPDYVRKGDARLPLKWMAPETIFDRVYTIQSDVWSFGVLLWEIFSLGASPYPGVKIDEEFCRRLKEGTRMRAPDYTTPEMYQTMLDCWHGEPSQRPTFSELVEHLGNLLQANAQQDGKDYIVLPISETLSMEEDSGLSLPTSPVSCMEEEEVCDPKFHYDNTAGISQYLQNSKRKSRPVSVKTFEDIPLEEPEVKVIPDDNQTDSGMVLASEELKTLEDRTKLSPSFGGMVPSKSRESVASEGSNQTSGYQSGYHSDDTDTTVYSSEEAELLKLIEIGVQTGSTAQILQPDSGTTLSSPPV

`COc1ccc2c(Oc3ccc4c(C(=O)Nc5ccc(F)c(F)c5N)cccc4c3)ccnc2c1` [Compound I-9]: the “Selectivity for Aurora B IC50-VEGFR2/IC50-Aurora B” value (“Selectivity” below) at VEGFR2 was 17.57. In addition, in the series on Molt-4 cells (dose 1 μM), the “Apoptosis (%) DNA < 2N” value is recorded as 24.60 ± 8.06%, the “Polyploid (%) DNA > 4N” value was 55.15 ± 15.20%, the “Tetraploid (%) DNA = 4N” value is reported as 6.07 ± 7.25% and the “Total (apoptosis + tetraploid + polyploid)” value (“Total” for short) amounted to 85.82. Further, in the series on Molt-4 cells (dose 3 μM), the “Apoptosis (%) DNA < 2N” value is listed as 21.35 ± 5.87%, the “Polyploid (%) DNA > 4N” value came to 56.10 ± 12.02%, the “Tetraploid (%) DNA = 4N” value came out at 5.39 ± 6.10% and the “Total” value came out at 82.84. Further, the Kp at 4 h in series [1] came to 0.6. In the series on PANC02 cells, the “Mean tumor volumes (mm^3 ± SEM), Day 9” value was found to be 145.9 ± 38.5 mm^3; the “Tumor volume inhibition rate (% TGI), Day 9” value is 114.0%; the “Mean tumor volumes (mm^3 ± SEM), Day 0” value turned out to be 193.9 ± 38.5 mm^3. In the series on PANC02 cells (Day 9, Mann Whitney test, p<0.001), the “Tumor volume compared with solvent control group” value is recorded as “significantly reduced tumor volumes”. Besides, the “Tumor volume compared with control molecule 01 (chiauranib) group” value in the series on PANC02 cells (Day 9, Mann Whitney test, p<0.01) is on record as “significantly reduced tumor volumes”. In addition, the “Tumor volume compared with control molecule 02 group” value in the series on PANC02 cells (Day 9, Mann Whitney test, p<0.05) is recorded as “significantly reduced tumor volumes”. Moreover, it took 1.79 nM to reach half-maximal inhibition on Aurora B kinase [2] (IC50).

With `COc1ccc2c(Oc3ccc4c(C(=O)Nc5ccccc5N)cccc4c3)ccnc2c1` [Control molecule 01, chiauranib, reference compound], on VEGFR2, the “Selectivity” value is recorded as 1.54. Moreover, in the series on Molt-4 cells (dose 1 μM), the “Apoptosis (%) DNA < 2N” value was determined as 10.23 ± 0.67%, the “Polyploid (%) DNA > 4N” value was 3.73 ± 2.95%, the “Tetraploid (%) DNA = 4N” value is on record as 14.80 ± 6.51% and the “Total” value is recorded as 28.76. In the series with Molt-4 cells (dose 3 μM), the “Apoptosis (%) DNA < 2N” value turned out to be 16.40 ± 6.65%, the “Polyploid (%) DNA > 4N” value turned out to be 6.40 ± 5.66%, the “Tetraploid (%) DNA = 4N” value is listed as 16.25 ± 8.13% and the “Total” value worked out at 39.05. The Kp at 4 h in series [1] amounted to 0.28. Moreover, in the series with PANC02 cells, the “Mean tumor volumes (mm^3 ± SEM), Day 9” value is 278.4 ± 35.6 mm^3; the “Tumor volume inhibition rate (% TGI), Day 9” value worked out at 74.6%; the “Mean tumor volumes (mm^3 ± SEM), Day 0” value came out at 191.5 ± 33.9 mm^3. Further, the “Tumor volume inhibition rate (% TGI), Day 9” value in the series with PANC02 cells (listed as control molecule 01) came to 74.6%. The “Inhibitory activity against Aurora B kinase” value on Aurora B kinase [3] is “relatively weak inhibitory activity”. Besides, the “Dose-limiting toxicity (DLT)” value in series [4] is recorded as “grade 3 hypertension”. The compound further yielded an IC50 at Aurora B kinase [2] of 10.8 nM.

On to `COc1ccc2c(Oc3ccc4c(C(=O)Nc5ccc(F)cc5N)cccc4c3)ccnc2c1` [Control molecule 02, reference compound], for which the “Selectivity” value at VEGFR2 worked out at 4.16. In addition, in the series with Molt-4 cells (dose 1 μM), the “Apoptosis (%) DNA < 2N” value came out at 10.07 ± 1.18%, the “Polyploid (%) DNA > 4N” value came out at 7.94 ± 3.77%, the “Tetraploid (%) DNA = 4N” value is recorded as 18.05 ± 0.35% and the “Total” value amounted to 36.06. In addition, in the series on Molt-4 cells (dose 3 μM), the “Apoptosis (%) DNA < 2N” value was 23.80 ± 2.26%, the “Polyploid (%) DNA > 4N” value was 55.70 ± 1.41%, the “Tetraploid (%) DNA = 4N” value is given as 8.40 ± 4.96% and the “Total” value is recorded as 87.90. In addition, the Kp at 4 h in series [1] was found to be 0.27. Besides, in the series on PANC02 cells, the “Mean tumor volumes (mm^3 ± SEM), Day 9” value turned out to be 299.3 ± 68.2 mm^3; the “Tumor volume inhibition rate (% TGI), Day 9” value amounted to 68.9%; the “Mean tumor volumes (mm^3 ± SEM), Day 0” value is reported as 192.7 ± 36 mm^3. Moreover, the “Tumor volume inhibition rate (% TGI), Day 9” value in the series on PANC02 cells (listed as control molecule 02) is 68.9%. Besides, the IC50 against Aurora B kinase [2] was determined as 2.08 nM.

For orientation: IC50 means the point on the concentration scale where inhibition reaches its midpoint.
